Reference: ChEMBL document CHEMBL1145618, “Discovery of trypanocidal thiosemicarbazone inhibitors of rhodesain and TbcatB” (Bioorg Med Chem Lett, 2008)

How the values were obtained:
[1] = Therapeutic index, ratio of EC50 for human Raji cells to EC50 for Trypanosoma brucei; format: cell-based; details: Raji cells (versus Trypanosoma brucei), read-out: Ratio EC50
[2] = Inhibition of Trypanosoma brucei rhodesain
Cathepsin B = Cathepsin B (Homo sapiens, UniProt P07858); assay: Inhibition of human cathepsin B
[3] = Inhibition of Trypanosoma brucei cathepsin B
Procathepsin L = Procathepsin L (Homo sapiens, UniProt P07711); assay: Inhibition of human cathepsin L
Trypanosoma brucei = assay: Antitrypanosomal activity against Trypanosoma brucei; format: functional, organism-based

Procathepsin L, sequence (P07711 whole entry): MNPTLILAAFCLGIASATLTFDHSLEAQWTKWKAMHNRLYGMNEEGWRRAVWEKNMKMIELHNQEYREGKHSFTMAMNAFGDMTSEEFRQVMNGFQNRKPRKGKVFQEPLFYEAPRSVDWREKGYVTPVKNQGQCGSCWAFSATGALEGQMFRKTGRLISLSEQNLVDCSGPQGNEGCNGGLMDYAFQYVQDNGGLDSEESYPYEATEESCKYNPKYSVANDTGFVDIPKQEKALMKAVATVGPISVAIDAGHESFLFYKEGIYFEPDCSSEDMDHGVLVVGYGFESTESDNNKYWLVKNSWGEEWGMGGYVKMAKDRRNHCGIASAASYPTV

Structure (SMILES) | selectivity ratio [1] | IC50 [2] | IC50 (Cathepsin B) | IC50 [3] | IC50 (Procathepsin L) | EC50 (Trypanosoma brucei)
NC(=S)N/N=C(/CCc1ccccc1)c1cccc(Cl)c1 | > 6.7 | 42 nM | 6000 nM | > 25000 nM | 21 nM | 3700 nM
NC(=S)N/N=C(/c1cc(Cl)cc(Cl)c1)c1cccs1 | > 4 | 11 nM | 300 nM | 450 nM | 3.6 nM | 7000 nM
NC(=S)N/N=C(/c1cc(C(F)(F)F)cc(C(F)(F)F)c1)c1cccs1 | > 4 | 7 nM | 300 nM | 150 nM | 10.1 nM | 7000 nM
NC(=S)N/N=C(/CCc1ccccc1)c1cccc(F)c1 | > 4 | 390 nM | 22000 nM | > 25000 nM | 118 nM | 6000 nM
Cc1ccc(/C(=N/NC(N)=S)c2cccc(F)c2)cc1 |  | 89 nM | 4500 nM | > 25000 nM | 44 nM | > 10000 nM
Cc1ccc(/C(=N\NC(N)=S)c2cc(Cl)cc(Cl)c2)cc1 | > 9 | 46 nM | 1800 nM | 6000 nM | 11 nM | 1100 nM
Cc1ccc(/C(=N/NC(N)=S)c2ccccc2)cc1 |  | 500 nM | 13000 nM | > 25000 nM | 1020 nM | > 10000 nM
NC(=S)N/N=C(/C=C/c1ccccc1)c1cccc(C(F)(F)F)c1 | > 10 | 29 nM | 1700 nM | 7000 nM | 81 nM | 2500 nM
NC(=S)N/N=C(\CCc1ccccc1)c1cc(Cl)cc(Cl)c1 | > 19 | 57 nM | 4900 nM | > 25000 nM | 39 nM | 1300 nM
Cc1ccc(/C(=N/NC(N)=S)c2cccc(C(F)(F)F)c2)cc1 | > 17 | 8 nM | 210 nM | 210 nM | 9.4 nM | 1500 nM
NC(=S)N/N=C(\CCc1ccccc1)c1cc(C(F)(F)F)cc(C(F)(F)F)c1 | > 10 | 53 nM | 3000 nM | > 25000 nM | 17 nM | 2000 nM
NC(=S)N/N=C(/CCc1ccccc1)c1ccccc1 |  | 1500 nM | > 25000 nM | > 25000 nM | 910 nM | > 10000 nM
Cc1ccc(/C(=N\NC(N)=S)c2cc(C(F)(F)F)cc(C(F)(F)F)c2)cc1 [THIOSEMICARBAZONE STANDARD] | > 19 | 44 nM | 3300 nM | 15000 nM | 7.4 nM | 1300 nM
